Reference: patent US9387198B1 (priority 2015, dated 2016)

Legend:
[1] = Cytotoxicity evaluation by MTT-assay; conditions: mouse, mouse fibroblast (3T3) cells
Procedure: (§1) Cytotoxicity evaluation was also carried out against mouse fibroblast (3T3) cell-line by employing MTT-assay.

[2] = biological target: T1, human serum albumin (HSA) (Homo sapiens, UniProt P02768); experiment: Fluorescence-based anti-glycation assay (fructose-mediated glycation of HSA); type: biochemical; conditions: compared to reference compound rutin
T1 construct: purchased Sigma Aldrich, St. Louis, Mo., USA
Procedure: Prior to incubation, rutin (reference compound) and 6-nitrobenzimidazole derivatives were added to a reaction mixture to a final concentration of 1 mM. DMSO was used as a solvent (final concentration: 10%) in this assay.
Percentage Inhibition=(1−Fluorescence of test compounds/Fluorescence of glycated-HSA)×100 Where, Test compounds=6-Nitrobenzimidazole derivatives

in vitro = conditions: mouse
Procedure: as §1

[3] = tested on: rat hepatocytes (CC1-Cell line); experiment: Fructose-derived AGE-induced intracellular ROS production (DCFH-DA technique); type: cell-based; conditions: for effect on ROS production (in words): AGE 200 μg/mL; for Fluorescence (Average), AGE-mediated intracellular ROS production: co-incubated with AGEs 200 μg/mL, 24 hours
Procedure: Procedure of the Assay: Briefly, 6×10^4 cells/mL cells (normal rat hepatocytes: CC1-Cell line) were seeded on a 96-well plate and kept for 24 hours in an incubator, containing 5% CO2 at 37° C. […] Initially the cells were incubated with 10 μM DCFH-DA non fluorescent probe, for 45 mins in the dark environment. […] The control was treated with 0.5% H2O2 just before 1 hour prior to halt the incubation period.
Detection of Fluorescence Intensity: The intensity of fluorescence was measured at an excitation 490 nm and an emission 520 nm, using Spectra Max Spectrophotometer (Applied Biosystems, CA, USA).
Where, Blank=Normal rat hepatocytes Control=Rat hepatocytes treated with 0.5% […] Test compound=6-Nitrobenzimidazole derivative

[4] = tested on: rat hepatocytes (CC1-Cell line); experiment: Fructose-derived AGE-mediated diminished growth of hepatocytes (MTT assay); type: cell-based; conditions: for effect on hepatocytes growth and proliferation (in words) / Percentage Inhibition (remaining growth inhibition of hepatocytes versus normal cells): AGEs 200 μg/mL; for Percentage Inhibition (remaining growth inhibition of hepatocytes versus normal cells): lower = more growth restored; for Absorbance (Average), AGE-mediated diminished growth of the hepatocytes: co-incubated with AGEs 200 μg/mL, 540 nm
Procedure: The mixture was incubated at 37° C. for 12 weeks under dark sterile environment. […] The cells treated with Triton X-100 were used as a blank, while normal cells remain untreated were used as a control.
MTT Assay: Following 24 hours of incubation, the plate was decanted to remove the medium and the cells were washed with 1×PBS. The MTT-dye (50 μL: 2 mg/mL) was then loaded to each well. 200 μL (final reaction volume) was reconstituted by serum free-MEM (Minimum essential media) in a dark environment. The plate was incubated in 5% CO2 containing incubator at 37° C. for the next 4 hours. At the end of the incubation, the medium was removed and the crystals were dissolved by adding 100 μL DMSO into each well.
Measurement of Absorbance: The intensity of purple colored solution was measured at the wavelength of 540 nm, using Spectra Max Spectrophotometer (Applied Biosystems, CA, USA).
Where, Blank=Triton X-100 treated rat hepatocytes Control=Normal rat hepatocytes Test Compound=6-nitrobenzimidazole derivatives

[5] = Rattus norvegicus, Hepatocyte, 24 h, read-out: Percentage Inhibition of AGE-mediated intracellular ROS production

T1 sequence (P02768 25-609): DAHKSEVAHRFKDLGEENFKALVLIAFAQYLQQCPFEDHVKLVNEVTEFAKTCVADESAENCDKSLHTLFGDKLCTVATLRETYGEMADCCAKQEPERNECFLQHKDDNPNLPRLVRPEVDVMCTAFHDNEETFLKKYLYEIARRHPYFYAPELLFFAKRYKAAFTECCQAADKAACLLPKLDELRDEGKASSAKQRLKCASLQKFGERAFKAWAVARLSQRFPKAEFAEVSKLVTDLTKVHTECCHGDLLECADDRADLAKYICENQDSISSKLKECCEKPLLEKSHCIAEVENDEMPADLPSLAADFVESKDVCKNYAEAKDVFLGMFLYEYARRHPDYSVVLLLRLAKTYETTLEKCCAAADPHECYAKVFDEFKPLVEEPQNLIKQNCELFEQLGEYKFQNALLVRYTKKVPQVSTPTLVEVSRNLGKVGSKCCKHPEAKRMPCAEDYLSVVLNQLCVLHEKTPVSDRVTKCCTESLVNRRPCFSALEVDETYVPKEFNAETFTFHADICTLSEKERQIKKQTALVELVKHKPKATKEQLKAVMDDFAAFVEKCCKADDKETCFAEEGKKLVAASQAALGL

O=[N+]([O-])c1ccc2nc(-c3ccc(O)c(O)c3)[nH]c2c1 [Compound 6, 4-(6-Nitro-1H-benzimidazol-2-yl)-1,2-benzenediol]
cytotoxicity [1]: 3.4% | anti-glycation activity (in words) [2]: significant anti-glycation activity

O=[N+]([O-])c1ccc2nc(-c3cccc(O)c3O)[nH]c2c1 [Compound 1, 3-(6-Nitro-1H-benzimidazol-2-yl)-1,2-benzenediol]
cytotoxicity [1]: 35.9% | anti-glycation activity (in words) [2]: significant anti-glycation activity

Cc1ccc(-c2nc3cc([N+](=O)[O-])ccc3[nH]2)cc1 [Compound 8, 2-(4-Methylphenyl)-6-nitro-1H-benzimidazole]
cytotoxicity [1]: 59.2%

O=[N+]([O-])c1ccc2nc(-c3ccsc3)[nH]c2c1 [Compound 3, 6-Nitro-2-(3-thienyl)-1H-benzimidazole]
cytotoxicity [1]: 19.7%

O=[N+]([O-])c1ccc2nc(-c3cc(O)ccc3O)[nH]c2c1 [Compound 2, 2-(6-Nitro-1H-benzimidazol-2-yl)-1,4-benzenediol]
cytotoxicity [1]: 21.1% | anti-glycation activity (in words) [2]: significant anti-glycation activity

O=[N+]([O-])c1ccc(-c2nc3cc([N+](=O)[O-])ccc3[nH]2)cc1 [Compound 9, 6-Nitro-2-(4-nitrophenyl)-1H-benzimidazole]
cytotoxicity [1]: 45.2%

O=[N+]([O-])c1ccc2nc(-c3ccc(O)cc3O)[nH]c2c1 [Compound 7, 4-(6-Nitro-1H-benzimidazol-2-yl)-1,3-benzenediol]
anti-glycation activity (in words) [2]: significant anti-glycation activity | cytotoxicity (in vitro): 37.4%

O=[N+]([O-])c1ccc2nc(-c3c(O)cc(O)cc3O)[nH]c2c1 [Compound 5, 2-(6-Nitro-1H-benzimidazol-2-yl)-1,3,5-benzenetriol]
cytotoxicity [1]: 4%

O=[N+]([O-])c1ccc2nc(-c3ccc(O)c(O)c3O)[nH]c2c1 [Compound 4, 4-(6-Nitro-1H-benzimidazol-2-yl)-1,2,3-benzenetriol]
cytotoxicity [1]: 9.8% | anti-glycation activity (in words) [2]: significant anti-glycation activity | inhibition at 24 µM [3, 5]: 63.6% | inhibition at 33 µM [3, 5]: 89.2% | inhibition at 49 µM [3, 5]: 93.4% | effect on ROS production (in words) ([3]; compound 24 μM): moderate activity against ROS production | Fluorescence (Average), AGE-mediated intracellular ROS production ([3]; compound 24 μM): 138.8 | effect on ROS production (in words) ([3]; compound 33 μM): significantly impaired the ROS production | Fluorescence (Average), AGE-mediated intracellular ROS production ([3]; compound 33 μM): 97.5 | effect on ROS production (in words) ([3]; compound 49 μM): inhibited the AGE-induced ROS production in rat hepatocytes in a remarkably significant manner | Fluorescence (Average), AGE-mediated intracellular ROS production ([3]; compound 49 μM): 90.7 | effect on hepatocytes growth and proliferation (in words) ([4]; compound 24 μM): significant effect on the growth and proliferation | Percentage Inhibition (remaining growth inhibition of hepatocytes versus normal cells) ([4]; compound 24 μM, 24 hours): 35.8% | Absorbance (Average), AGE-mediated diminished growth of the hepatocytes ([4]; compound 24 μM, 24 hours): 0.91 | effect on hepatocytes growth and proliferation (in words) ([4]; compound 33 μM, 24 hours): significantly restored the growth and proliferation | Percentage Inhibition (remaining growth inhibition of hepatocytes versus normal cells) ([4]; compound 33 μM, 24 hours): 34.3% | Absorbance (Average), AGE-mediated diminished growth of the hepatocytes ([4]; compound 33 μM, 24 hours): 0.93 | effect on hepatocytes growth and proliferation (in words) ([4]; compound 49 μM): as effective as 33 μM concentration in reducing the toxicity of AGEs | Percentage Inhibition (remaining growth inhibition of hepatocytes versus normal cells) ([4]; compound 49 μM, 24 hours): 22.2% | Absorbance (Average), AGE-mediated diminished growth of the hepatocytes ([4]; compound 49 μM, 24 hours): 1.05

O=[N+]([O-])c1ccc2nc(-c3ccc(O)cc3)[nH]c2c1 [Compound 10, 4-(6-Nitro-1H-benzimidazol-2-yl) phenol]
cytotoxicity [1]: 3.6%
